According to patent publication US20240325321A1, “COMPOSITIONS AND METHODS FOR INHIBITING PLpro PROTEASE ACTIVITY AND FOR PREVENTING AND TREATING SARS-CoV-2 INFECTION” (Arizona Board of Regents on Behalf of the University of …, priority 2022, published 2024):
Where two headings read alike, the source gives them in different places.

How the values were obtained:
SARS-CoV-2 [1] = assay: SARS-CoV-2 antiviral assay in Vero E6 cells; assay type: cell-based; settings: Severe acute respiratory syndrome coronavirus 2, Vero C1008
SARS-CoV-2 [2] = assay: SARS-CoV-2 antiviral assay in Caco2-hACE2 cells; assay type: cell-based; settings: Severe acute respiratory syndrome coronavirus 2
SARS-CoV-2 [3] = assay: SARS-CoV-2 antiviral assay in Huh7-ACE2 cells; assay type: cell-based; settings: Severe acute respiratory syndrome coronavirus 2
SARS-CoV-2 PL^pro = SARS-CoV-2 PL^pro (Severe acute respiratory syndrome coronavirus 2, UniProt P0DTD1); assay: biochemical; assay type: biochemical
[4] = Cytotoxicity in Vero E6 cells; settings: African green monkey
M^pro = target: T1, M^pro (Severe acute respiratory syndrome coronavirus 2, UniProt P0DTD1); assay: biochemical
T1 construct: the main protease (M^pro)

[5] = Cytotoxicity in Calu-3 cells; settings: human
in vitro = settings: African green monkey
[6] = FRET assay, read-out: SARS-CoV-2 PL^pro IC50

| SMILES | IC50 (SARS-CoV-2 PL^pro) [µM] | IC50 (SARS-CoV-2 PL^pro; [6]) [µM] | also measured |
| --- | --- | --- | --- |
| Cc1ccc(N)cc1C(=O)N[C@H](C)c1cccc2ccccc12 [GRL0617, reference compound] | – | – | EC50 (SARS-CoV-2 [1]): 74.4 µM; EC50 (SARS-CoV-2 [2]): 25.1 µM; EC50 (SARS-CoV-2 [3]): 20.2 µM |
| C[C@H](c1ccc(Cl)cc1)N(C)Cc1cc(O)ccc1Cl [Jun9-13-4] | > 20 | – | – |
| CCN(Cc1cc(O)ccc1Cl)c1cccc(C)c1C [Jun9-13-5] | > 20 | – | – |
| CC(C1CCCCC1)N(C)Cc1cc(O)ccc1Cl (stereo not shown) [Jun9-13-6] | > 20 | – | – |
| Cc1ccc(C(C)N(C)Cc2cc(O)ccc2Cl)cc1 (stereo not shown) [Jun9-13-8] | – | 71.8 | – |
| COc1ccc(Cl)c(CN(C)[C@H](C)c2ccccc2C)c1 [Jun9-25-4] | – | 49.3 | – |
| Cc1ccccc1[C@@H](C)N(C)Cc1cc(O)ccc1Cl [Jun9-25-5] | – | – | EC50 (SARS-CoV-2 [3]): 3.1 µM; CC50 [4]: 38.8 µM |
| Cc1ccccc1CN(C)Cc1cc(O)ccc1Cl [Jun9-26-2] | > 20 | – | – |
| COc1ccc(Cl)c(CN(C)[C@H](C)c2cccc3ccccc23)c1 [Jun9-26-5] | > 20 | – | – |
| C[C@H](c1cccc2ccccc12)N(C)Cc1cc(O)ccc1Cl [Jun9-28-6] | – | 2.66 | IC50 (M^pro): > 20 µM; EC50 (SARS-CoV-2 [3]): 5.17 µM |
| CC1CCCCC1N(C)Cc1cc(O)ccc1Cl (stereo not shown) [Jun9-29-1] | > 20 | – | – |
| CC(C)c1ccccc1N(C)Cc1cc(O)ccc1Cl [Jun9-29-3] | > 20 | – | – |
| CN(Cc1cc(O)ccc1Cl)Cc1c(Cl)cccc1Cl [Jun9-29-4] | > 20 | – | – |
| CC(C1CC(F)CCC1F)N(C)Cc1cc(O)ccc1Cl (stereo not shown) [Jun9-29-5] | – | > 20 | – |
| CC(c1cccc(O)c1)N(C)Cc1cc(O)ccc1Cl (stereo not shown) [Jun9-29-6] | – | 26.9 | – |
| CC(c1ccccc1F)N(C)Cc1cc(O)ccc1Cl (stereo not shown) [Jun9-29-7] | – | 42.9 | – |
| C[C@H](c1cccc2ccccc12)N(C)Cc1ccc(O)cc1 [Jun9-44-3] | – | – | EC50 (SARS-CoV-2 [1]): 11.2 µM; EC50 (SARS-CoV-2 [2]): 8.32 µM; SARS-CoV-2 PL^pro inhibition, in words (SARS-CoV-2 PL^pro): highly potent; CC50 [5]: 27.7 µM |
| Oc1ccc(Cl)c(CN2CCc3ccccc3C2)c1 [Jun9-44-5] | > 20 | – | – |
| C[C@@H](NC(=O)c1cc(O)ccc1Cl)c1cccc2ccccc12 [Jun9-47-2] | – | 6.72 | IC50 (M^pro): > 20 µM |
| Cc1ccc(O)cc1C(=O)N[C@H](C)c1cccc2ccccc12 [Jun9-47-3] | – | 2.44 | IC50 (M^pro): > 20 µM |

| SMILES | IC50 (SARS-CoV-2 PL^pro) [µM] | IC50 (SARS-CoV-2 PL^pro; [6]) [µM] | also measured |
| --- | --- | --- | --- |
| C[C@H](c1cccc2ccccc12)N(C)Cc1cc(N)ccc1Cl [Jun9-53-1] | – | 2.71 | IC50 (M^pro): > 20 µM |
| Cc1ccc(N)cc1CN(C)[C@H](C)c1cccc2ccccc12 [Jun9-53-2] | – | – | EC50 (SARS-CoV-2 [1]): 25.2 µM; IC50 (M^pro): > 20 µM; EC50 (SARS-CoV-2 [2]): 8.89 µM; SARS-CoV-2 PL^pro inhibition, in words (SARS-CoV-2 PL^pro): highly potent; CC50 [4]: 25.7 µM |
| C[C@H](c1cccc2ccccc12)N(C)Cc1ccnc(O)c1 [Jun9-84-6] | > 20 | – | – |
| C[C@H](c1cccc2ccccc12)N(C)Cc1cnc(N)cc1N [Jun9-84-7] | – | 5.62 | – |
| C[C@H](c1cccc2ccccc12)N(C)Cc1ccc(OCC(N)=O)nc1 [Jun9-85-4] | – | 2.84 | – |
| C[C@H](c1cccc2ccccc12)N(C)Cc1ccc2c(c1)COC2=O [Jun9-85-7] | – | 6.41 | – |
| C[C@H](c1cccc2ccccc12)N(C)Cc1ccc2cccc(O)c2c1 [Jun9-85-8] | – | > 20 | – |
| C[C@H](c1cccc2ccccc12)N(C)Cc1ccc2c(c1)NC(=O)CO2 [Jun9-86-3] | – | 7.01 | – |
| Cc1cc(O)cc(C)c1CN(C)[C@H](C)c1cccc2ccccc12 [Jun9-86-6] | – | 0.37 | – |
| C[C@H](c1cccc2ccccc12)N(C)Cc1n[nH]c2cccc(O)c12 [Jun9-86-7] | > 20 | – | – |
| Cc1cc(O)ccc1CN(C)[C@H](C)c1cccc2ccccc12 [Jun9-87-2] | – | – | CC50 (in vitro): 61 µM; SARS-CoV-2 PL^pro inhibition, in words (SARS-CoV-2 PL^pro): highly potent |
| C[C@H](c1cccc2ccccc12)N(C)Cc1ccc(O)cc1Cl [Jun9-87-3] | – | – | CC50 (in vitro): 26 µM; SARS-CoV-2 PL^pro inhibition, in words (SARS-CoV-2 PL^pro): highly potent |
| Cc1ccc(S(N)(=O)=O)cc1C(=O)N(C)C(C)c1ccc(Cl)c2ccccc12 (stereo not shown) [Jun 10-69-2] | – | – | SARS-CoV-2 PL^pro inhibition, in words (SARS-CoV-2 PL^pro): highly potent |
| C[C@H](c1cccc2ccccc12)N(C)C(=O)c1nccnc1N [ZX-129] | – | > 20 | IC50 (M^pro): > 20 µM |
| C[C@H](c1cccc2ccccc12)N(C)Cc1cccnc1 [ZX-136-2] | – | 9.29 | – |
| C[C@H](c1cccc2ccccc12)N(C)Cc1cnn(C)c1 [ZX-136-3] | – | 10.1 | – |
| C[C@H](c1cccc2ccccc12)N(C)Cc1ccc(-n2cccc2)cc1 [ZX-136-4] | > 20 | – | – |
| C[C@H](c1cccc2ccccc12)N(C)Cc1cncn1C [ZX-136-5] | – | 8.32 | – |
| C[C@H](c1cccc2ccccc12)N(C)Cc1cnccn1 [ZX-136-9] | > 20 | – | – |
| C[C@H](c1cccc2ccccc12)N(C)Cc1cnc2c(O)cccn12 [ZX-136-10] | – | 14.3 | – |
